The target in assay [1] is human orexin 1 receptors (Homo sapiens (Human), UniProt O43613). The experiment in a line: Calcium Accumulation in Cells (FLIPR), antagonism of orexin A. To be noted: for Ki: antagonism of orexin A, Cheng-Prusoff corrected, read-out: FLIPR hOx1R Ki; for inhibition at 10 µM: measured at a concentration of 10 μM of compound, read-out: FLIPR hOx1R % inhibition value. In kind it is cell-based.

Assay [2] has as its target human orexin 2 receptors (Homo sapiens (Human), UniProt O43614). The assay is described as above. The following applies: for Ki: antagonism of orexin A, Cheng-Prusoff corrected, read-out: FLIPR hOx2R Ki; for inhibition at 10 µM: measured at a concentration of 10 μM of compound, read-out: FLIPR hOx2R % inhibition value. The class given is cell-based. In outline: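 Cells expressing human orexin 2 receptor, loaded with Fluo4-AM (2 μM) plus probenecid (0.1 mM) for 1 h, then washed. Antagonism read as inhibition of the orexin A calcium fluorescence signal (FLIPR).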

Among the data in patent US8742106B2 (Novartis AG, priority 2009, dated 2014) are Ki and inhibition values, retold here.

human orexin 2 receptors, sequence (O43614 whole entry): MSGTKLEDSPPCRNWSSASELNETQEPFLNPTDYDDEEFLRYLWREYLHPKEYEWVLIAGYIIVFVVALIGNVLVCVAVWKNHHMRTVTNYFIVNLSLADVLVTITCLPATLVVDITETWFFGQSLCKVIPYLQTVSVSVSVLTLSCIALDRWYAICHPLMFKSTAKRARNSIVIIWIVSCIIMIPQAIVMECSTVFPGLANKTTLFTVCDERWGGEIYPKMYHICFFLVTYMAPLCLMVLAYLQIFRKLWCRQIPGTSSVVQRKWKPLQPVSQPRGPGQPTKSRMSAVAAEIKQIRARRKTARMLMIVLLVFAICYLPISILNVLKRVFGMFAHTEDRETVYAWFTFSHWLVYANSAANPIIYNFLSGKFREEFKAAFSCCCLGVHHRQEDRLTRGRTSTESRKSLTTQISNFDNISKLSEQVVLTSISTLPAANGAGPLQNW
human orexin 1 receptors, sequence (O43613 whole entry): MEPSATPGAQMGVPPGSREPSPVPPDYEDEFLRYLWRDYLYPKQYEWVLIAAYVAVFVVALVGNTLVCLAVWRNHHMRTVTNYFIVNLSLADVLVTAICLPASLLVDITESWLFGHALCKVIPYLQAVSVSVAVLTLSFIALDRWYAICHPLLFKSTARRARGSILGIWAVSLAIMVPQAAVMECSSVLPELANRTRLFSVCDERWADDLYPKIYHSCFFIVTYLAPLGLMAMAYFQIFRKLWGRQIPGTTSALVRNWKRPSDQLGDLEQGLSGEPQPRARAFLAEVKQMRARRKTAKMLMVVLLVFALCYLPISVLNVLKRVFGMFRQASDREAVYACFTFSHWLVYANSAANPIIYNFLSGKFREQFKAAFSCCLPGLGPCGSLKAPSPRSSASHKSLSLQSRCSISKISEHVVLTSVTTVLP

As a reminder, the Ki is the dissociation constant of the complex between target and ligand, obtained from inhibition or displacement. As for `Cc1ccc(C(C)NC(=O)COc2cc(C(F)F)c3c(-c4ccccc4)nn(C)c3n2)cn1` (stereo not shown) [Example 6.18, 2-(4-(difluoromethyl)-1-methyl-3-phenyl-1H-pyrazolo[3,4-b]pyridin-6-yloxy)-N-(1-(6-methylpyridin-3-yl)ethyl)acetamide], the Ki turned out to be 535 nM in assay [1] and 98 nM in assay [2].
Usually inhibition stands for how much of the control response was suppressed. Turning to `Cc1cc(OCC(=O)NCCc2c[nH]c3ccccc23)nc2c1c(C1CC1)nn2C` [Example 7.5, N-(2-(1H-indol-3-yl)ethyl)-2-(3-cyclopropyl-1H-dimethyl-1H-pyrazolo[3,4-b]pyridin-6-yloxy)acetamide], the inhibition at 10 µM in assay [1] was < 10%. The Ki in assay [2] was 479 nM.
For `Cc1cc(OCC(=O)NC(C)c2nc3ccc(Cl)cc3s2)nc2c1c(C1CC1)nn2C` (stereo not shown) [Example 7.30, N-(1-(6-chlorobenzo[d]thiazol-2-yl)ethyl)-2-(3-cyclopropyl-1,4-dimethyl-1H-pyrazolo[3,4-b]pyridin-6-yloxy)acetamide], in assay [1], the Ki came to 938 nM. Further, the inhibition at 10 µM in assay [2] turned out to be 26%.
For the compound `Cc1ccnc(C(C)NC(=O)COc2cc(C)c3c(C4CC4)nn(C)c3n2)c1` (stereo not shown) [Example 7.21, 2-(3-cyclopropyl-1,4-dimethyl-1H-pyrazolo[3,4-b]pyridin-6-yloxy)-N-(1-(4-methylpyridin-2-yl)ethyl)acetamide], the values for the inhibition at 10 µM in assay [1] and in assay [2] were < 10% and 22%, respectively.
For `Cc1cc(OCC(=O)NC(C)c2ccccn2)nc2c1c(-c1ccccc1)nn2C` (stereo not shown) [Example 1.65, 2-(1,4-dimethyl-3-phenyl-1H-pyrazolo[3,4-b]pyridin-6-yloxy)-N-(1-(pyridin-2-yl)ethyl)acetamide] the same measures were 26% and 30%.
In the case of `Cc1cnc2c(c1)CC[C@@H]2NC(=O)COc1cc(C)c2c(C3CC3)nn(C)c2n1` [Example 6.65, (S)-2-(3-cyclopropyl-1,4-dimethyl-1H-pyrazolo[3,4-b]pyridin-6-yloxy)-N-(3-methyl-6,7-dihydro-5H-cyclopenta[b]pyridin-7-yl)acetamide], in assay [1], the inhibition at 10 µM was < 10%. For the same compound, in assay [2], the Ki was determined as 825 nM.
Regarding `CC(Oc1cc(C(F)(F)F)c2c(-c3ccccc3)nn(C)c2n1)C(=O)N[C@@H](C)c1ccccc1` (single isomer, unassigned) [Example 1.74], the inhibition at 10 µM in assay [1] and in assay [2] was < 10% each time.
As for `CCCNC(=O)COc1cc(C(F)(F)F)c2c(-c3ccccc3)nn(C)c2n1` [Example 1.55, 2-(1-methyl-3-phenyl-4-(trifluoromethyl)-1H-pyrazolo[3,4-b]pyridin-6-yloxy)-N-propylacetamide], the inhibition at 10 µM in assay [1] came to 23%. Moreover, the Ki in assay [2] was found to be 767 nM.
Consider `C[C@H](NC(=O)COc1cc(C(F)(F)F)c2c(-c3ccccn3)nn(C)c2n1)c1ccccc1` [Example 1.21, (S)-2-(1-methyl-3-(pyridin-2-yl)-4-(trifiuoromethyl)-1H-pyrazolo[3,4-b]pyridin-6-yloxy)-N-(1-phenylethyl)acetamide], for which the figures for the inhibition at 10 µM in assay [1] and in assay [2] were 38% and 29%, respectively.
Consider `COc1ccc([C@H](C)NC(=O)C(C)Oc2cc(C)c3c(C4CC4)nn(C)c3n2)cc1` (stereo partly drawn) [Example 6.70, 2-(3-cyclopropyl-1,4-dimethyl-1H-pyrazolo[3,4-b]pyridin-6-yloxy)-N-((S)-1-(4-methoxyphenyl)ethyl)propanamide], for which the Ki in assay [1] came out at 1060 nM; in assay [2], 1070 nM.
For `Cc1cc(OCC(=O)NC(C)c2cn3ccsc3n2)nc2c1c(C1CC1)nn2C` (stereo not shown) [Example 7.25, 2-(3-cyclopropyl-1,4-dimethyl-1H-pyrazolo[3,4-b]pyridin-6-yloxy)-N-(1-(imidazo[2,1-b]thiazol-6-yl)ethyl)acetamide], in that order: 1560 nM and 584 nM.
As for `Cc1cc(OCC(=O)NCc2cccc3cnn(C)c23)nc2c1c(C1CC1)nn2C` [Example 7.10, 2-(3-cyclopropyl-1,4-dimethyl-1H-pyrazolo[3,4-b]pyridin-6-yloxy)-N-((1-methyl-1H-indazol-7-yl)methyl)acetamide], the values for the inhibition at 10 µM in assay [1] and in assay [2] were 34% and 40%, respectively.
On to `Cn1nc(-c2ccccc2)c2c(C(F)(F)F)cc(OCC(=O)NC3CCCC3)nc21` [Example 1.10, N-cyclopentyl-2-(1-methyl-3-phenyl-4-(trirfluoromethyl)-1H-pyrazolo[3,4-b]pyridin-6-yloxy)acetamide], for which the figures for the Ki in assay [1] and in assay [2] were 650 nM and 324 nM, respectively.
As for `Cc1cc(OCC(=O)N[C@H]2CCc3ccccc32)nc2c1c(C1CC1)nn2C` [Example 1.75, (S)-2-(3-cyclopropyl-1,4-dimethyl-1H-pyrazolo[3,4-b]pyridin-6-yloxy)-N-(2,3-dihydro-1H-inden-1-yl)acetamide], the inhibition at 10 µM in assay [1] amounted to 27%. Moreover, in assay [2], the Ki turned out to be 809 nM.
Consider `Cn1nc(-c2ccccc2)c2c(C(F)(F)F)cc(OCC(=O)NCc3ccccc3F)nc21` [Example 1.42, N-(2-fluorobenzyl)-2-(1-methyl-3-phenyl-4-(trifluoromethyl)-1H-pyrazolo[3,4-b]pyridin-6-yloxy)acetamide], for which the results for the Ki in assay [1] and in assay [2] were 1590 nM and 890 nM, respectively.
For `Cn1nc(-c2ccccc2)c2c(C(F)(F)F)cc(OCC(=O)NC3CCCc4ccccc43)nc21` (stereo not shown) [Example 1.56, 2-(1-methyl-3-phenyl-4-(trifluoromethyl)-1H-pyrazolo[3,4-b]pyridin-6-yloxy)-N-(1,2,3,4-tetrahydronaphthalen-1-yl)acetamide], in that order: 378 nM and 165 nM.
In the case of `Cc1nc(C(C)NC(=O)COc2cc(C(F)(F)F)c3c(-c4ccccc4)nn(C)c3n2)c(C)s1` (stereo not shown) [Example 1.40, N-(1-(2,5-dimethylthiazol-4-yl)ethyl)-2-(1-methyl-3-phenyl-4-(trifluoromethyl)-1H-pyrazolo[3,4-b]pyridin-6-yloxy)acetamide], the inhibition at 10 µM in assay [1] was determined as 37%. Moreover, in assay [2], the Ki was 2900 nM.
Take `Cc1ccc([C@H](C)NC(=O)COc2ccc3c(C4CC4)nn(C)c3n2)cc1` [Example 6.23, (S)-2-(3-cyclopropyl-1-methyl-1H-pyrazolo[3,4-b]pyridin-6-yloxy)-N-(1-p-tolylethyl)acetamide]: the Ki turned out to be 1100 nM in assay [1] and 237 nM in assay [2].
For `COc1cccc([C@H](C)NC(=O)COc2cc(C)c3c(C4CC4)nn(C)c3n2)c1` [Example 7.12, (S)-2-(3-cyclopropyl-1,4-dimethyl-1H-pyrazolo[3,4-b]pyridin-6-yloxy)-N-(1-(3-methoxyphenyl)ethyl)acetamide], the Ki in assay [1] came out at 736 nM. In addition, the inhibition at 10 µM in assay [2] is 43%.
`COc1ccc(C(C)NC(=O)COc2cc(C(F)F)c3c(C4CC4)nn(C)c3n2)cn1` (stereo not shown) [Example 6.10, 2-(3-cyclopropyl-4-(difluoromethyl)-1-methyl-1H-pyrazolo[3,4-b]pyridin-6-yloxy)-N-(1-(6-methoxypyridin-3-yl)ethyl)acetamide]: the Ki in assay [1] was determined as 516 nM; in assay [2], 184 nM.
Regarding `Cc1cc(OCC(=O)NC(C)C2CC2)nc2c1c(C1CC1)nn2C` (stereo not shown) [Example 6.53], the figures for the inhibition at 10 µM in assay [1] and in assay [2] were 17% and 38%, respectively.
As for `COc1ccc([C@H](C)N(C)C(=O)COc2cc(C)c3c(C4CC4)nn(C)c3n2)cc1` [Example 6.51], the inhibition at 10 µM in assay [1] was 26%. In addition, the Ki in assay [2] stood at 575 nM.
With `Cc1cc(OCC(=O)NC(C)c2cnn(C)c2)nc2c1c(C1CC1)nn2C` (stereo not shown) [Example 7.20, 2-(3-cyclopropyl-1,4-dimethyl-1H-pyrazolo[3,4-b]pyridin-6-yloxy)-N-(1-(1-methyl-1H-pyrazol-4-yl)ethyl)acetamide], the inhibition at 10 µM in assay [1] is 34%; in assay [2] it was 31%.
`CCOc1ccc(CNC(=O)COc2cc(C)c3c(C4CC4)nn(C)c3n2)cc1` [Example 7.33, 2-(3-cyclopropyl-1,4-dimethyl-1H-pyrazolo[3,4-b]pyridin-6-yloxy)-N-(4-ethoxybenzyl)acetamide]: in assay [1], the Ki was found to be 3170 nM. In addition, in assay [2], the inhibition at 10 µM amounted to 24%.
As for `Cc1ccc([C@H](C)NC(=O)COc2cc(C)c3c(-c4ccnn4C)nn(C)c3n2)cc1` [Example 4.3, (S)-2-(1,4-dimethyl-3-(1-methyl-1H-pyrazol-5-yl)-1H-pyrazolo[3,4-b]pyridin-6-yloxy)-N-(1-p-tolylethyl)acetamide], the inhibition constant (Ki) in assay [1] is 2680 nM; in assay [2] it was 2220 nM.
For `Cc1ccccc1-c1nn(C)c2nc(OCC(=O)N[C@@H](C)c3ccccc3)cc(C(F)(F)F)c12` [Example 1.26, (S)-2-(1-methyl-3-o-tolyl-4-(trifluoromethyl)-1H-pyrazolo[3,4-b]pyridin-6-yloxy)-N-(1-phenylethyl)acetamide] the same measures were 218 nM and 183 nM.
For `COc1ccccc1C(C)NC(=O)COc1cc(C(F)(F)F)c2c(-c3ccccc3)nn(C)c2n1` (stereo not shown) [Example 1.44, N-(1-(2-methoxyphenyl)ethyl)-2-(1-methyl-3-phenyl-4-(trifluoromethyl)-1H-pyrazolo[3,4-b]pyridin-6-yloxy)acetamide] the same measures were 274 nM and 158 nM.
For `Cc1n[nH]c(C)c1C(C)NC(=O)COc1cc(C)c2c(C3CC3)nn(C)c2n1` (stereo not shown) [Example 1.76, 2-(3-cyclopropyl-1,4-dimethyl-1H-pyrazolo[3,4-b]pyridin-6-yloxy)-N-(1-(3,5-dimethyl-1H-pyrazol-4-yl)ethyl)acetamide], in that order: 395 nM and 606 nM.
On to `C[C@@H](NC(=O)COc1cc(C(F)(F)F)c2c(-c3ccccc3)nn(C)c2n1)c1ccccc1` [Example 1.27, (R)-2-(1-methyl-3-phenyl-4-(trifluoromethyl)-1H-pyrazolo[3,4-b]pyridin-6-yloxy)-N-(1-phenylethyl)acetamide], for which the inhibition at 10 µM in assay [1] is 33%; in assay [2], 35%.
